In US20160115540A1, “PRODRUGS AND DRUGS” (Biogen MA Inc., priority 2013, published 2016):
Where a name gives a salt, the structure may show the parent alone.

Test system: blood and tissues
Assay: Transcriptional profiling, acute (single) dosing, EAE mice: blood and tissues
Format: in vivo
Details: for Number of differentially expressed genes identified: Brain / Number of differentially expressed genes identified: Cerebellum / Number of differentially expressed genes identified: Lymph Node / Number of differentially expressed genes identified: Spleen / Number of differentially expressed genes identified: Whole blood / Number of differentially expressed genes identified: Spinal Cord: EAE, Acute Dosing
Excerpt: EAE induction is generally performed by immunization with brain extracts, CNS proteins (such as myelin basic protein), or peptides from such protein emulsified in an adjuvant such as complete Freund's adjuvant, e.g., as described in Linker et al., Brain. 2011 March 134(Pt3): 678-92. […] FIG. 17 depicts exemplary immunophenotyping panels used to analyze various immune cell populations (e.g., T cells, T regulatory cells, NK cells, B cells, myeloid cells). […] The number of independent mice whose tissues were harvested for transcript profiling studies and whose data passed QC is shown in TABLE 15. Animals were exposed to CO2 and whole blood collected via cardiac puncture. Two 100 μl aliquots of whole blood were collected in 1.5 mL microcentrifuge tubes and snap frozen in liquid nitrogen. Peripheral (liver, spleen, kidney and jejunum) and CNS brain (cerebellum, hippocampus, striatum and cortex) tissues were harvested and snap frozen in liquid nitrogen, with special care taken to collect tissues of similar size and from the same location. All samples were stored at -80° C. until RNA extraction was conducted. For RNA preparation, frozen tissues were placed in 2 mL RNAse-free 96-well blocks with 1.5 mL QIAzol Lysis Reagent (QIAgen) and a 3.2 mm stainless steel bead (BioSpec Products, Bartlesville, Okla.). Tissues were disrupted for four cycles of 45 seconds in a Mini-Beadbeater (Biospec Products). RNA was extracted in chloroform and the aqueous phase was mixed with an equal volume of 70% ethanol. Extracted RNA was applied to RNeasy 96 plates and purified by the spin method according to the manufacturer's protocol (RNeasy 96 Universal Tissue Protocol, QIAgen, Hilden Germany). 50 ul of snap frozen mouse blood was re-suspended in lysis buffer with proteinase K and arrayed into deep-well plates for automated RNA extraction. RNA extractions were completed on […] (Beckman Coulter, Indianapolis, Ind.) using Agencourt RNAdvance Blood kit (Part number A35604) according to the manufacturer's specifications. RNA integrity was assessed using the HT RNA reagent kit (Part number 760410, Caliper Life Sciences, Hopkinton, Mass.) using a LabChip GX (PerkinElmer, Waltham, Mass.). RNA samples with a RQS score of >8.0 were considered high quality for downstream microarray processing. […] Washing and staining of the hybridized arrays were completed as described in the GeneChip Expression analysis technical manual for HT plate arrays using the Genechip® Array Station (Affymetrix, Santa Clara, Calif.) with modifications as described in […] et al. The processed GeneChip® plate arrays were scanned using GeneTitan scanner (Affymetrix, Santa Clara, Calif.). Affymetrix scans were subject to quality control (QC) measures. These tests included a visual inspection of the distribution of raw signal intensities and an assessment of RNA degradation, relative log expression (RLE), and normalized unscaled standard error (NUSE). All sample scans that passed these QC metrics were included in the analysis. […] Nucleic Acids Res 2003; 31:e15; Li C, et al. Genome Biol 2001; 2:[…]0032). […] Stat Appl Genet Mol Biol 2004; 3:Article3). […] Springer Science+Business Media 2005). […] Generally, no distinct sample groupings were apparent from this analysis; however, in the following cohorts, differences in EAE severity across the mice were manifest in global gene expression patterns: An example of this animal grouping is shown in FIG. 33 for the spinal cord from the chronically-dosed 7 h EAE mice. […] Three distinct groups of mice result from unsupervised clustering, and these animal groups correlate with the cumulative EAE score. […] Subsequent analyses for the cohorts listed above only included those animals with the most severe EAE scores; however, for the cohorts 'Spinal Cord, Acute Dosing, 7 h' and 'Spleen, Acute Dosing, 12 h,' there were an insufficient number of mice in the different treatment groups to perform such a sub-analysis. […]

[1] = 100 mpk DMF-vs-90 mpk MMF, 7 h after last dosing
[2] = 100 mpk DMF-vs-90 mpk MMF, 12 h after last dosing
[3] = 100 mpk DMF-vs-Vehicle, 7 h after last dosing
[4] = 100 mpk DMF-vs-Vehicle, 12 h after last dosing
[5] = lymph node, 100DMF-vs-Veh, 12 h
[6] = whole blood, 100DMF-vs-Veh, 7 h

Structure (SMILES): COC(=O)/C=C/C(=O)OC [DMF, dimethyl fumarate]
- Number of differentially expressed genes identified: Brain [1]: 0
- Number of differentially expressed genes identified: Cerebellum [1]: 0
- Number of differentially expressed genes identified: Lymph Node [1]: 0
- Number of differentially expressed genes identified: Spleen [1]: 0
- Number of differentially expressed genes identified: Whole blood [1]: 0
- Number of differentially expressed genes identified: Brain [2]: 0
- Number of differentially expressed genes identified: Cerebellum [2]: 0
- Number of differentially expressed genes identified: Lymph Node [2]: 0
- Number of differentially expressed genes identified: Spinal Cord [2]: 0
- Number of differentially expressed genes identified: Whole blood [2]: 0
- Number of differentially expressed genes identified: Brain [3]: 0
- Number of differentially expressed genes identified: Cerebellum [3]: 0
- Number of differentially expressed genes identified: Lymph Node [3]: 7
- Number of differentially expressed genes identified: Spleen [3]: 21
- Number of differentially expressed genes identified: Whole blood [3]: 3
- Number of differentially expressed genes identified: Brain [4]: 0
- Number of differentially expressed genes identified: Cerebellum [4]: 0
- Number of differentially expressed genes identified: Lymph Node [4]: 2
- Number of differentially expressed genes identified: Spinal Cord [4]: 1
- Number of differentially expressed genes identified: Whole blood [4]: 0
- differentially expressed genes (cerebellum, 100DMF-vs-90MMF, 7 h): None
- differentially expressed genes (cerebellum, 100DMF-vs-90MMF, 12 h): None
- differentially expressed genes (cerebellum, 100DMF-vs-Veh, 7 h): None
- differentially expressed genes (cerebellum, 100DMF-vs-Veh, 12 h): None
- differentially expressed genes (lymph node, 100DMF-vs-90MMF, 7 h): None
- differentially expressed genes (lymph node, 100DMF-vs-90MMF, 12 h): None
- FC Aox1 (1419435_PM_at) (lymph node, 100DMF-vs-Veh, 7 h): 2.16
- FC F3 1417408_PM_at (lymph node, 100DMF-vs-Veh, 7 h): 1.59
- FC Gclm 1439050_PM_at (lymph node, 100DMF-vs-Veh, 7 h): 1.53
- FC Nqo1 (1423627_PM_at) (lymph node, 100DMF-vs-Veh, 7 h): 2.19
- FC Pir (1429001_PM_at) (lymph node, 100DMF-vs-Veh, 7 h): 1.52
- FC Srxn1 (1419942_PM_at) (lymph node, 100DMF-vs-Veh, 7 h): 1.71
- FC Srxn1 (1426875_PM_s_at) (lymph node, 100DMF-vs-Veh, 7 h): 1.68
- FC Aox1 (1419435_PM_at) [5]: 1.69
- FC Nqo1 (1423627_PM_at) [5]: 1.69
- differentially expressed genes (spinal cord, 100DMF-vs-90MMF, 12 h): None
- FC Blvrb (1451386_PM_at) (spinal cord, 100DMF-vs-Veh, 12 h): 1.84
- differentially expressed genes (spleen, 100DMF-vs-90MMF, 7 h): None
- FC 1441413_PM_at (spleen, 100DMF-vs-Veh, 7 h): 1.52
- FC 1458902_PM_at (spleen, 100DMF-vs-Veh, 7 h): 1.69
- FC Aox1 (1419435_PM_at) (spleen, 100DMF-vs-Veh, 7 h): 1.74
- FC Cat 1416430_PM_at (spleen, 100DMF-vs-Veh, 7 h): 1.63
- FC Dennd4a 1435975_PM_at (spleen, 100DMF-vs-Veh, 7 h): 1.56
- FC Dnmt31 1425035_PM_s_at (spleen, 100DMF-vs-Veh, 7 h): 1.81
- FC Gclm 1439050_PM_at (spleen, 100DMF-vs-Veh, 7 h): 2.02
- FC Gsta3 (1423436_PM_at) (spleen, 100DMF-vs-Veh, 7 h): 1.74
- FC Gsta3 (1423437_PM_at) (spleen, 100DMF-vs-Veh, 7 h): 1.55
- FC Higd1c /// Mettl7a1 /// Mettl7a2 1434150_PM_a_at (spleen, 100DMF-vs-Veh, 7 h): 2.00
- FC Il1f9 1425958_PM_at (spleen, 100DMF-vs-Veh, 7 h): 2.33
- FC Kif22 1437716_PM_x_at (spleen, 100DMF-vs-Veh, 7 h): 1.53
- FC LOC677317 /// Me1 1416632_PM_at (spleen, 100DMF-vs-Veh, 7 h): 1.52
- FC Nqo1 (1423627_PM_at) (spleen, 100DMF-vs-Veh, 7 h): 3.34
- FC Pir (1429001_PM_at) (spleen, 100DMF-vs-Veh, 7 h): 2.99
- FC Polh 1447837_PM_x_at (spleen, 100DMF-vs-Veh, 7 h): 1.51
- FC Srxn1 (1419942_PM_at) (spleen, 100DMF-vs-Veh, 7 h): 2.08
- FC Srxn1 (1426875_PM_s_at) (spleen, 100DMF-vs-Veh, 7 h): 2.08
- FC Srxn1 (1451680_PM_at) (spleen, 100DMF-vs-Veh, 7 h): 1.84
- FC Tmem41b 1428586_PM_at (spleen, 100DMF-vs-Veh, 7 h): 1.61
- FC Ugt1a1 /// Ugt1a10 /// Ugt1a2 /// Ugt1a5 /// Ugt1a6a /// Ugt1a6b /// Ugt1a7c /// Ugt1a9 (1426261_PM_s_at) (spleen, 100DMF-vs-Veh, 7 h): 1.51
- differentially expressed genes (whole blood, 100DMF-vs-Veh, 12 h): None
- differentially expressed genes (whole blood, 100DMF-vs-90MMF, 7 h): None
- differentially expressed genes (whole blood, 100DMF-vs-90MMF, 12 h): None
- FC Dtx4 1436545_PM_at [6]: 1.72
- FC Egln3 1418649_PM_at [6]: 1.82
- FC Rnf128 (1449036_PM_at) [6]: 1.62
